# From US9351915B2, “Ascorbic acid derivative composition and production method of the same, ascorbic acid derivative solution, and skin external preparation” (SHOWA DENKO K.K., priority 2012, dated 2016)
# How the values were obtained:
# [1] = Storage stability test (aqueous solution, residual ratio by HPLC); type: physicochemical; details: 2% by mass ascorbic acid derivative in purified water, glass bottle with lid, 10 days at 40° C., light shielding; total of 2- and 3-phosphate salts
# Description: The sodium salt of L-ascorbic acid-2-phosphoric acid-6-palmitate obtained in Production Example 2 and the sodium salt of L-ascorbic acid-3-phosphoric acid-6-palmitate obtained in Production Example 4 were mixed at a ratio (% by mass) shown in Table 1 to prepare ascorbic acid derivative compositions of Examples 1 to 3.
# The mixture obtained in Production Example 6 ((sodium salt of L-ascorbic acid-2-phosphoric acid-6-palmitate): (sodium salt of L-ascorbic acid-3-phosphoric acid-6-palmitate)=97.7:2.3 (mass ratio)) was used as it is as an ascorbic acid derivative composition of Example 4. […]
# The concentration of ascorbic acid derivative in each of the solutions obtained before standing (immediately after preparation) and after standing for 10 days was measured, and the “residual ratio” was determined from the results by the following formula.
# The concentration of ascorbic acid derivative contained in the solution was measured by the same measuring conditions as in the evaluation of the yield, with a high performance liquid chromatography apparatus using the Shodex SB 802.5 HQ column (manufactured by Showa Denko K.K.). […]
# [2] = Solubility test (time until solid is absent in aqueous medium); type: physicochemical; details: 20° C., 500 rpm, visual observation every 5 minutes
# Description: Each substance shown in Table 2 was prepared at the ratio (% by mass) indicated in Table 2 so that the total amount was 100 g. First, pure water or a mixture of pure water and methanol serving as a solvent was placed in a beaker having a capacity of 200 mL, and the beaker was immersed in a water bath which was controlled to 20° C. Then, stirring was performed at a rotational speed of 500 rpm with a stirrer chip having a diameter of 2.5 cm, and the ascorbic acid derivative was mixed at the point where the liquid temperature reached 20° C. This time point was set as the zero point and the time (min) until the solid became absent in the mixture was measured. As for the end point, visual observation was carried out every 5 minutes from the start of the stirring, and the time point at which the mixture became clear was determined as the end point.
Compound,Residual ratio (%) [1] [%],further results
"CCCCCCCCCCCCCCCC(=O)OCC(O)C1OC(=O)C(OP(=O)([O-])[O-])=C1[O-].[Na+].[Na+].[Na+] [Comp. Ex. 1, Sodium salt of L-ascorbic acid-2-phosphoric acid-6-palmitate]",88.6,–
"CCCCCCCCCCCCCCCC(=O)OCC(O)C1OC(=O)C([O-])=C1OP(=O)([O-])[O-].[Na+].[Na+].[Na+] [Comp. Ex. 2, Sodium salt of L-ascorbic acid-3-phosphoric acid-6-palmitate]",83.9,–
"CCCCCCCCCCCCCCCC(=O)OCC(O)C1OC(=O)C(OP(=O)([O-])[O-])=C1[O-].[Na+].[Na+].[Na+] [Comp. Ex. 3, Sodium salt of L-ascorbic acid-2-phosphoric acid-6-palmitate]",–,Time required for dissolution ([2]; 10% by mass ascorbic acid derivative in 90% by mass pure water): 50 min
"CCCCCCCCCCCCCCCC(=O)OCC(O)C1OC(=O)C(OP(=O)([O-])[O-])=C1[O-].[Na+].[Na+].[Na+] [Comp. Ex. 4, Sodium salt of L-ascorbic acid-2-phosphoric acid-6-palmitate]",–,Time required for dissolution ([2]; 10% by mass ascorbic acid derivative in 70% by mass pure water + 20% by mass methanol): 65 min
